Literature values in patent US20120040927A1, “MEDICINAL ANTIFUNGAL AND STEROID CREAM INCORPORATING A BIOPOLYMER AND A PROCESS TO MAKE IT” (APEX LABORATORIES PRIVATE LIMITED, priority 2009, published 2012).
Where two headings read alike, the source gives them in different places.

Experiments:
[1] = system: Trichophyton rubrum, Trichophyton mentagrophytes, Epidermophyton floccosum, Microsporum canis and Candida species including Candida albicans
[2] = not given; remark: listed apart in the source
[3] = not given; remark: listed apart in the source

| Solubility in alcohol and in chloroform (alcohol, chloroform) | Solubility in water | Solubility in ether (ether) | Solubility in polyethylene glycol 400, ethanol and chloroform (polyethylene glycol 400, ethanol, chloroform) | Absorption ([2]; humans, oral administration) | Absorption ([2]; topical and vaginal administration) | Protein binding [3] | Compound | In vitro antifungal activity against isolates [1] |
| --- | --- | --- | --- | --- | --- | --- | --- | --- |
| slightly soluble | insoluble | – | – | – | – | – | CC(=O)OCC(=O)[C@@]1(O)CC[C@H]2[C@@H]3CCC4=CC(=O)CC[C@]4(C)[C@H]3[C@@H](O)C[C@@]21C [Hydrocortisone Acetate] | – |
| – | practically insoluble | sparingly soluble | very soluble | well absorbed | minimally absorbed | about 90% | Clc1ccccc1C(c1ccccc1)(c1ccccc1)n1ccnc1 [Clotrimazole, 1-(o-Chloro-α, α-diphenylbenzyl)imidazole] | fungistatic and fungicidal activity |
